Measurements published in patent publication US6448006B1, “Methods and compositions for reducing bacterial tolerance to antibacterials disinfectants and organic solvents” (priority 1997, dated 2002).
Like-named read-outs stand apart in the source and are kept apart here.

Tests used:
[1] = values in parentheses in column heads; cited from earlier work
[2] = system: E. coli strains bearing mar, soxS or robA plasmids; assay type: cell-based
From the text: Organic solvent tolerance mediated by the marA, soxS, robA and acrAB loci of E. coli is described in White et al. (J. Bacteriol. 179:6122-6126, 1997).

C1CCCCC1 [cyclohexane]
log Pow [1]: cyclohexane (3.4) | Growth in presence of organic solvent ([2]; AG100 (wild-type), no plasmid): − | Growth in presence of organic solvent ([2]; AG100, plasmid pMAK-TU1): − | Growth in presence of organic solvent ([2]; AG100, plasmid pMAK-TU1 & TU2): + + | Growth in presence of organic solvent ([2]; AG100, plasmid pMAK-TU2): + ((+) visible growth(≦100 colonies)) | Growth in presence of organic solvent ([2]; AG100, plasmid pSMarAB): + ((+) visible growth(≦100 colonies)) | Growth in presence of organic solvent ([2]; AG100, plasmid pSRob): + + | Growth in presence of organic solvent ([2]; AG100, plasmid pSXS): + + | Growth in presence of organic solvent ([2]; AG100-A (ΔacrAB), no plasmid): − | Growth in presence of organic solvent ([2]; AG100-B (acrR mutant), no plasmid): + ((+) visible growth(≦100 colonies)) | Growth in presence of organic solvent ([2]; AG100K (marCORAB::kan), no plasmid): − | Growth in presence of organic solvent ([2]; AG100K, plasmid pMAK-TU1): − | Growth in presence of organic solvent ([2]; AG100K, plasmid pMAK-TU2): + ((+) visible growth(≦100 colonies)) | Growth in presence of organic solvent ([2]; AG100K, plasmid pMAK-TUI & TU2): + + | Growth in presence of organic solvent ([2]; AG100K, plasmid pSMarAB): + ((+) visible growth(≦100 colonies)) | Growth in presence of organic solvent ([2]; AG100K, plasmid pSRob): + + | Growth in presence of organic solvent ([2]; AG100K, plasmid pSXS): + + | Growth in presence of organic solvent ([2]; AG102 (marR mutation), no plasmid): + + | Growth in presence of organic solvent ([2]; AG102-A (marRl, ΔacrAB), no plasmid): − | Growth in presence of organic solvent ([2]; AG102-A, plasmid pSMarAB): − | Growth in presence of organic solvent ([2]; AG102-A, plasmid pSRob): − | Growth in presence of organic solvent ([2]; AG102-A, plasmid pSXS): − | Growth in presence of organic solvent ([2]; DJ901 (ΔsoxRS), no plasmid): − | Growth in presence of organic solvent ([2]; DJ901, plasmid pMAK-TU1): − | Growth in presence of organic solvent ([2]; DJ901, plasmid pMAK-TU1 & TU2): + + | Growth in presence of organic solvent ([2]; DJ901, plasmid pMAK-TU2): + ((+) visible growth(≦100 colonies)) | Growth in presence of organic solvent ([2]; DJ901, plasmid pSMarAB): + ((+) visible growth(≦100 colonies)) | Growth in presence of organic solvent ([2]; DJ901, plasmid pSRob): + + | Growth in presence of organic solvent ([2]; DJ901, plasmid pSXS): + + | Growth in presence of organic solvent ([2]; GC4468 (wild-type), no plasmid): − | Growth in presence of organic solvent ([2]; GC4468, plasmid pMAK-TU1): − | Growth in presence of organic solvent ([2]; GC4468, plasmid pMAK-TU1 & TU2): + + | Growth in presence of organic solvent ([2]; GC4468, plasmid pMAK-TU2): + ((+) visible growth(≦100 colonies)) | Growth in presence of organic solvent ([2]; GC4468, plasmid pSMarAB): + ((+) visible growth(≦100 colonies)) | Growth in presence of organic solvent ([2]; GC4468, plasmid pSRob): + + | Growth in presence of organic solvent ([2]; GC4468, plasmid pSXS): + + | Growth in presence of organic solvent ([2]; JHC1069 (cfxB1), no plasmid): + + | Growth in presence of organic solvent ([2]; JTG1078 (soxR105), no plasmid): + + | Growth in presence of organic solvent ([2]; MCH164 (Δmar), no plasmid): − | Growth in presence of organic solvent ([2]; MCH164, plasmid pMAK-TU1): − | Growth in presence of organic solvent ([2]; MCH164, plasmid pMAK-TU1 & TU2): + + | Growth in presence of organic solvent ([2]; MCH164, plasmid pMAK-TU2): − | Growth in presence of organic solvent ([2]; MCH164, plasmid pSMarAB): − | Growth in presence of organic solvent ([2]; MCH164, plasmid pSRob): − | Growth in presence of organic solvent ([2]; MCH164, plasmid pSXS): − | Growth in presence of organic solvent ([2]; RA4468 (robA::kan), no plasmid): − | Growth in presence of organic solvent ([2]; RA4468, plasmid pMAK-TU1): − | Growth in presence of organic solvent ([2]; RA4468, plasmid pMAK-TU1 & TU2): + + | Growth in presence of organic solvent ([2]; RA4468, plasmid pMAK-TU2): + ((+) visible growth(≦100 colonies)) | Growth in presence of organic solvent ([2]; RA4468, plasmid pSMarAB): + ((+) visible growth(≦100 colonies)) | Growth in presence of organic solvent ([2]; RA4468, plasmid pSRob): + + | Growth in presence of organic solvent ([2]; RA4468, plasmid pSXS): + +
